Like-named read-outs stand apart in the source and are kept apart here.
Key:
S. epidermidis = assay: Broth microdilution MIC of lecithin/chitosan particle compositions; format: cell-based; details: for MIC: Staphylococcus epidermidis
Experimental: (§1) Initially, to determine basic characteristics, each active component was separately mixed, generally under agitated conditions, with water, and each was miscible with water. Each, after being mixed with water, was tested in a broth microdilution assay, against a variety of bacteria using amounts of the each of the lauric acid derivatives, ranging from about 0.0009 wt. % to about 8 wt. %. The bacteria included Escherichia coli, and Staphylococcus aureus (including MRSA strains). The minimum inhibitory concentration (MIC) needed to prevent growth of the target bacteria was evaluated based on a method published by Clinical Laboratory Standards Institute (CLSI), broth microdilution method M-07 (M07). […] Each of the samples containing one of the lauric acid derivatives was compared with a positive control, decanoic acid.
(§2) For TABLES 1 to 3, compositions were generally prepared as described above, and as further outlined in this paragraph. For these examples, the active component, as a lauric acid derivative or lauric acid, was suspended in an organic solvent, chloroform, and then mixed with water, under robust agitation. The amount of water to the amount of chloroform was at least about 2:1, and could be as high as 10:1. Chloroform was then evaporated (e.g., under vacuum using a freeze dryer). After removal of the chloroform, a 2.2% lecithin solution in an acetate buffer (e.g., 98 mM acetic acid and 2 mM sodium acetate) was prepared and added, so the final amount of the active component was about 1 part active component mixture and about 9 parts of the 2.2% lecithin solution. Of course, it is noted that other ranges to achieve final amount of the active component as described above (e.g., active component mixture and lecithin solution) may also be utilized. Cholesterol could also be optionally added. The mixture of lecithin and the active component was mixed and sonicated, and then a solution of about 1.5% chitosan was added. Thereafter, the entirety of the mixture containing the lecithin and the active component was further blended, in which a final ratio was about 1 part active component to about 9 parts of the 2.2% lecithin solution to about 10 parts of the 1.5% chitosan solution. The pH was then varied, to a pH of 5, or a pH of 7, or a pH of 9. In some mixtures having a pH of 7, a chemical agent imparting a positive charge to the chitosan was included in a form of glycol chitosan. In these tests, the chemical agent used was glycol. In these examples, the amount of chemical agent, glycol was about one molecule glycol moiety to one molecule chitosan sacharide unit; higher amounts of glycol moieties are also acceptable, while lower amounts of glycol moieties were often found to decrease overall inhibitory activity associated with a composition when formed and tested in vitro. It is noted that negatively charged chitosan containing particles were prepared. […] After mixing, the mixtures could each be filtered through a […] filter. In some tests, the mixtures were sonicated before filtering. Sonication produced small particles. In some studies, particles were freeze dried as a powder (generally, after mixing, sonicating and filtering).
(§3) The positive controls were prepared and evaluated in a similar manner. All prepared samples were tested using a broth microdilution test.

[1] = tested on: gram-positive organisms, Streptococcus group A and Streptococcus beta-hemolytic non-A, and S. aureus, as well as Candida; details: background reports; free acid or ester used as such, in vitro/topical; cited from earlier work
[2] = tested on: Gram-positive pathogens and Gram-negative pathogens; assay: In vitro inhibitory activity of chitosan- or carrier-containing particles; format: cell-based
Excerpt: as §2, §3
This also occurs when the chitosan- or carrier-containing particle includes an active component that has a log P value that is less than 4 and includes a methyl and/or ethyl side chain (e.g., 12-amino-1-dodecanoic acid methyl ester). […]

E. coli = assay: Broth microdilution MIC of lecithin/chitosan particle compositions; format: cell-based; details: for MIC (mg/ml) for E. coli (chitosan prep. mixture was at pH 5 or at pH 7): prep. mixture pH 5 or pH 7
Experimental: as §1, §2, §3

[3] = format: in vivo; details: mice, oral capsules approximately 4 mg active component in chitosan-containing particles, three times per day for seven days
Excerpt: Laboratory trials have shown that no resistance has developed in pathogens exposed to the compositions described herein, even with long term, repeated exposure (data not shown). In addition, no intrinsic resistance can or has been detected in target pathogens. […] A placebo group is also included, in which a group of 10 mice are given a placebo set of capsules, orally, three times per day and continued for seven days, each of the placebo set of capsules containing similarly prepared chitosan-containing particles without an active component, the preparation being generally as described herein. Initial mice have been infected with Salmonella typhimurium prior to oral delivery of one of the set of capsules. The capsules may be vegetable capsules. The capsules may have an enteric coating. For delivery, a formulation may be prepared in a manner understood in the relevant art. For delivery, a formulation may be in at least any one or more of the following forms: liquid, capsule, dried powder, mist, and the like. For delivery, the formulation will contain pharmaceutical grade materials, including one or more excipients and or fillers for internal and/or topical delivery in sufficient amounts known to those of skill in the relevant art. Flavors, colors, sugars, sugar-substitutes, and the like may also be included in any of the formulations, as is understood to those of skill in the relevant art.

[4] = Table 3, lecithin/chitosan particle composition, prep. mixture pH 5 or pH 7, maximum concentration tested 10 mg/ml
[5] = Table 3, lecithin/chitosan particle composition, prep. mixture pH 5 or pH 7, maximum concentration tested 10 mg/ml, read-out: MIC (mg/ml) S. epidermidis (chitosan prep. mixture at pH 5 or at pH 7)
[6] = lecithin/chitosan particle composition, maximum concentration tested 10 mg/ml

With `CCCCCCCCCC(=O)CC(=O)NC1CCCCC1=O` (stereo not shown) [3-oxo-N-(2-oxocyclohexyl) dodecanamide] the “MIC (mg/ml) S. epidermidis (chitosan prep. mixture at pH 5 or at pH 7)” value (S. epidermidis; [4]) was 10 mg/ml.

In the case of `CCCCCCCCCCCC(=O)Oc1ccc([N+](=O)[O-])cc1` [4-nitrophenyl dodecanoate], the MIC (S. epidermidis; [5]) is reported as 10 mg/mL.

With `O=C(O)CCCCCCCCCCCNc1ccc([N+](=O)[O-])c2nonc12` [12-(7-nitrobenzofurazan-4-ylamino) dodecanoic acid] the MIC (S. epidermidis; [5]) was 10 mg/mL.

For `CCCCCCCCCCCC(=O)OCCC(C)C` [isoamyl laurate], the MIC (S. epidermidis; [5]) was 10 mg/mL.

`CCCCCCCCCCCC(=O)OC(C)C` [isopropyl laurate] gave an MIC (S. epidermidis; [5]) of 10 mg/mL.

In the case of `CCCCCCCCCCCC(=O)OC` [methyl laurate], the “Inhibitory activity reported in the literature” value (“Inhibitory activity reported” for short) [1] is given as “ineffective”.

In the case of `CCCCCCCCCCCC(=O)O` [lauric acid, dodecanoic acid], the “Inhibitory activity reported” value [1] is given as “weak inhibitory activity”.

In the case of `CCCCCCCCCCCC(=O)OCC(O)CO` (stereo not shown) [monolaurin], the “MIC (mg/ml) S. epidermidis (chitosan prep. mixture at pH 5 or at pH 7)” value (S. epidermidis; [4]) is reported as 10 mg/ml.

`CCCCCCCCCCCC(=O)OCCCCCC` [hexyl laurate] showed an MIC (S. epidermidis; [5]) of 10 mg/mL.

In the case of `CCCCCCCCCCCC(=O)OCC` [ethyl laurate], the “Inhibitory activity reported” value [1] is given as “inactive”.

Work on `CCCCCCCCCCCC(=O)OCC(O)CO` (racemic) [1-lauroyl-rac-glycerol] yielded an MIC (S. epidermidis; read-out: MIC (mg/ml) S. epidermidis (chitosan prep. mixture at pH 5 or at pH 7)) of 10 mg/mL.

In the case of sucrose monolaurate, the “Inhibitory activity against both Gram-positive pathogens and Gram-negative pathogens” value ([2]; synthesis (with chitosan) at pH 7 with positively charged chitosan) is reported as “stronger inhibitory activity as well as broad spectrum activity”, the “Inhibitory activity against both Gram-positive pathogens and Gram-negative pathogens” value ([2]; synthesis (with chitosan) at pH 9) is reported as “stronger inhibitory activity as well as broad spectrum activity” and the “MIC (mg/ml) for E. coli (chitosan prep. mixture was at pH 5 or at pH 7)” value (E. coli; [6]) is reported as “— (no inhibitory activity)”. The “MIC (mg/ml) for E. coli (chitosan prep. mixture was at pH 9)” value (E. coli; lecithin/chitosan particle composition, prep. mixture pH 9, maximum concentration tested 10 mg/ml) was 10 mg/ml, the “MIC (mg/ml) for E. coli (chitosan prep. mixture was at pH 7 with glycol chitosan)” value (E. coli; lecithin/glycol chitosan particle composition, prep. mixture pH 7, maximum concentration tested 10 mg/ml) was 10 mg/ml and the “MIC (mg/ml) for S. epidermidis (chitosan prep. mixture was at pH 5 or at pH 7)” value (S. epidermidis; lecithin/chitosan particle composition, prep. mixture pH 5 or pH 7, maximum concentration tested 10 mg/ml) was 10 mg/ml. For the same compound, the “Safety in animal trials” value [3] was “no safety concerns”.

With `CCCCCCCCCCCC(=O)OCc1ccccc1` [benzyl laurate] the MIC (S. epidermidis; [5]) was 10 mg/mL.

`CCCCCCCCCCCC(=O)OCCCCC` [pentyl laurate] gave an MIC (S. epidermidis; [5]) of 10 mg/mL.

For `CCCCCCCC(=O)O` [octanoic acid, reference compound], the “MIC (mg/ml) for E. coli (chitosan prep. mixture was at pH 5 or at pH 7)” value (E. coli; [6]) was “— (no inhibitory activity)”, the “Inhibitory activity against representative Gram-negative bacteria” value (E. coli; particulated compositions manipulated to impart positivity (glycol chitosan at neutral pH, or prepared at pH 9)) was “not found to exhibit inhibitory activity” and the MIC (S. epidermidis; [5]) was 10 mg/mL. For the same compound, the MIC (S. epidermidis; lecithin/chitosan particle composition, prep. mixture pH 5 or pH 7, maximum concentration tested 10 mg/ml, read-out: MIC (mg/ml) for S. epidermidis (chitosan prep. mixture was at pH 5 or at pH 7)) was 10 mg/mL.

With `CCCCCCCCCCCC(=O)OCCCC` [butyl laurate] the MIC (S. epidermidis; [5]) was 10 mg/mL.
